Target: T1, Lp-PLA2 in rabbit serum (Oryctolagus cuniculus, UniProt G1SE06)
T1 construct: from tissue; host or cells: rabbit serum
T1 sequence (G1SE06 22-423): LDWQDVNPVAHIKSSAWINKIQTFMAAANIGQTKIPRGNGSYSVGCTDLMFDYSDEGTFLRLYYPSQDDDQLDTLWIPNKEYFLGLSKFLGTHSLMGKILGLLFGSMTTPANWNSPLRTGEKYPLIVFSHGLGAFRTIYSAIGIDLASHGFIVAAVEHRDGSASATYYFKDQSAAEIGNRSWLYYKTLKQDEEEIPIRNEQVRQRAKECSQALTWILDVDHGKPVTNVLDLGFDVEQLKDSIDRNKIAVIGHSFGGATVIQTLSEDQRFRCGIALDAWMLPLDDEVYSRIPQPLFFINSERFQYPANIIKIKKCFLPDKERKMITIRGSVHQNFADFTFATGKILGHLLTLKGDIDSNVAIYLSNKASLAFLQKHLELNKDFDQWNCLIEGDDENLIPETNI
Test: In vitro inhibitory activity towards the enzyme Lp-PLA2 in rabbit serum, [3H]PAF substrate
Type: biochemical
Details: rabbit serum; for inhibition at 0.1 µM: 100 nM, read-out: inhibition, %
Procedure: The activities of compounds were measured using [^3H] labeled platelet activating factor ([^3H]PAF, Perkinelmer, Lot NET910) as the substrate. The reaction was carried out in a system containing 50 mmol/L HEPES and 150 mmol/L NaCl (pH 7.4) in a total volume of 200 μl. First, 10 μL rabbit serum and 10 μl DMSO solution of the test compound were added to the system and preincubated for 10 min at 37° C. Then 20 nM [^3H]PAF was added as listed in table 1 to start the reaction and incubated for a further 10 min at 37° C. After that, 600 μl of CHCl3/MeOH (2:1) was added and the resulting mixture was vortex mixed and the reaction was stopped. After settled for a while, the mixture was centrifugated at 12000×g for 15 min. The supernatant was transferred to a new tube and 200 μl of CHCl3 was added. The mixture was mixed by vortexing and then settled or centrifugated for 2 min. A 100 μl portion of the supernatant was then collected for radioactivity intensity measurement.
The inhibition rate was determined by the following equation:
Inhibitory rate (%)=1−(DPMcompound tube−DPMblank tube)/(DPMcontrol tube−DPMblank tube)*100%
(Note: DPM is radioactivity intensity unit.)

Compound | inhibition at 1 µM | inhibition at 10 µM | inhibition at 0.1 µM
CCCCCCCC1NC(Cn2c(SCc3ccc(F)cc3)nc(=O)c3c2CCC3)=NO1 (centres unmarked) [Example 1, 2-(4-fluorobenzylthio)-1-((5-n-heptyl-4,5-dihydro-1,2,4-oxadiazol-3-yl)methyl)-6,7-dihydro-1H-cyclopenta[d]pyrimidin-4(5H)-one] | 10% | 62.6% | 
CCCCCCCCCCC1NC(Cn2c(SCc3ccc(F)cc3)nc(=O)c3c2CCC3)=NO1 (centres unmarked) [Example 2, 1-((5-n-decyl-4,5-dihydro-1,2,4-oxadiazol-3-yl)methyl)-2-(4-fluorobenzylthio)-6,7-dihydro-1H-cyclopenta[d]pyrimidin-4(5H)-one] | 26.6% | 82.7% | 
CCCCCCCC1NC(Cn2c(SCc3ccc(F)cc3)cc(=O)c3ccccc32)=NO1 (centres unmarked) [Example 3, 2-(4-fluorobenzylthio)-1-((5-n-heptyl-4,5-dihydro-1,2,4-oxadiazol-3-yl)methyl)quinolin-4(1H)-one] |  | 12.5% | 
CCCC1NC(Cn2c(SCc3ccc(F)cc3)nc(=O)c3c2CCC3)=NO1 (centres unmarked) [Example 6, 2-(4-fluorobenzylthio)-1-((5-n-propyl-4,5-dihydro-1,2,4-oxadiazol-3-yl)methyl)-6,7-dihydro-1H-cyclo-penta[d]pyrimidin-4(5H)-one] | 16.2% | 74% | 
CCCC/C=C/N1C(Cn2c(SCc3ccc(F)cc3)nc(=O)c3c2CCC3)=NOC1CCCCCCC (centres unmarked) [Example 18, (E)-2-(4-fluorobenzylthio)-1-((5-n-heptyl-4-(n-hex-1-enyl)-4,5-dihydro-1,2,4-ox-adiazol-3-yl)methyl)-6,7-di-hydro-1H-cyclopenta[d]py-rimidin-4(5H)-one] | 7.4% | 41.9% | 
O=c1nc(SCc2cccc(F)c2F)n(CC2=NOC(c3ccc(-c4ccc(C(F)(F)F)cc4)cc3)N2CCN2CCOCC2)c2c1CCC2 (centres unmarked) [Example 19, 2-(2,3-difluorobenzylthio)-1-((4-(2-morpholinoethyl)-5-(4′-(trifluoromethyl)biphenyl-4-yl)-4,5-dihydro-1,2,4-oxadiazol-3-yl)methyl)-6,7-dihydro-1H-cyclopenta[d]pyrimidin-4(5H)-one] | 29% | 76.8% | 
O=c1nc(SCc2cccc(F)c2F)n(CC2=NOC(c3ccc(-c4ccc(C(F)(F)F)cc4)cc3)N2CCN2CCCCC2)c2c1CCC2 (centres unmarked) [Example 23, 2-(2,3-difluorobenzylthio)-1-((4-(2-(piperidin-1-yl)ethyl)-5-(4′-(trifluoromethyl)biphenyl-4-yl)-4,5-dihydro-1,2,4-oxadiazol-3-yl)methyl)-6,7-dihydro-1H-cyclopenta[d]pyrimidin-4(5H)-one] | 33% | 82.4% | 
O=c1nc(SCc2ccc(F)cc2)n(Cc2ncc(-c3ccccc3)[nH]2)c2c1CCC2 [Example 26, 2-(4-fluorobenzylthio)-1-((5-phenyl-1H-imidazol-2-yl)methyl)-6,7-dihydro-1H-cyclopenta[d]pyrimidin-4(5H)-one] |  | 7.4% | 
Cn1cc(Cc2cn(Cc3nccn3Cc3ccc(-c4ccc(C(F)(F)F)cc4)cc3)c(SCc3ccc(F)cc3)nc2=O)cn1 [Example 29, 2-(4-fluorobenzylthio)-5-((1-methyl-1H-pyrazol-4-yl)methyl)-1-((1-((4′-(trifluoromethyl)biphenyl-4-yl)methyl)-1H-imidazol-2-yl)methyl)pyrimidin-4(1H)-one] | 64.9% |  | 12.6%
CCCCCCCCCCCCn1ccnc1Cn1c(SCc2ccc(F)cc2)nc(=O)c2c1CCC2 [Example 30, 1-((1-n-dodecyl-1H-imidazol-2-yl)methyl)-2-(4-fluorobenzylthio)-6,7-dihydro-1H-cyclopenta[d]pyrimidin-4(5H)-one] | 42.3% | 87.5% | 
O=c1nc(SCc2ccc(F)cc2)n(Cc2nccn2Cc2ccc(-c3ccc(Cl)cc3)cc2)c2c1CCC2 [Example 32, 1-((1-((4′-chlorobiphenyl-4-yl)methyl)-1H-imidazol-2-yl)methyl)-2-(4-fluorobenzylthio)-6,7-dihydro-1H-cyclopenta[d]pyrimidin-4(5H)-one] | 50% |  | 2.1%
Cc1ccc(-c2ccc(Cn3ccnc3Cn3cc(Cc4cnn(C)c4)c(=O)nc3SCc3ccc(F)cc3)cc2)cc1 [Example 34, 2-(4-fluorobenzylthio)-5-((1-methyl-1H-pyrazol-4-yl)methyl)-1-((1-((4′-methylbiphenyl-4-yl)methyl)-1H-imidazol-2-yl)methyl)pyrimidin-4(1H)-one] | 14.6% |  | 
CCN(CC)CCn1c(-c2ccc(-c3ccc(C(F)(F)F)cc3)cc2)cnc1Cn1c(SCc2ccc(F)cc2)nc(=O)c2c1CCC2 [Example 38, 1-((1-(2-(diethylamino)ethyl)-5-(4′-(trifluoromethyl)biphenyl-4-yl)-1H-imidazol-2-yl)methyl)-2-(4-fluorobenzylthio)-6,7-dihydro-1H-cyclopenta[d]pyrimidin-4(5H)-one] | 16% | 20.4% | 
Cc1cnc(Cn2cc(Cc3cnn(C)c3)c(=O)nc2SCc2ccc(F)cc2)n1Cc1ccc(-c2ccc(C(F)(F)F)cc2)cc1 [Example 41, 2-(4-fluorobenzylthio)-1-((5-methyl-1-((4′-(trifluoromethyl)biphenyl-4-yl)methyl)-1H-imidazol-2-yl)methyl)-5-((1-methyl-1H-pyrazol-4-yl)methyl)pyrimidin-4(1H)-one] | 64.9% |  | 12.6%

More lines, now with the values ahead:

inhibition at 1 µM | inhibition at 10 µM | inhibition at 0.1 µM | Compound
25% | 60.3% |  | O=c1nc(SCc2ccc(F)cc2)n(CC2=NOC(c3ccc(-c4ccc(C(F)(F)F)cc4)cc3)N2)c2c1CCC2 (centres unmarked) [Example 7, 2-(4-fluorobenzylthio)-1-((5-(4′-(trifluoromethyl)biphen-yl-4-yl)-4,5-dihydro-1,2,4-oxadiazol-3-yl)methyl)-6,7-dihydro-1H-cyclo-penta[d]pyrimidin-4(5H)-one]
31% | 86.6% |  | O=c1nc(SCc2ccc(F)cc2)n(CC2=NOC(c3ccc(-c4ccc(C(F)(F)F)cc4)cc3)N2CCN2CCCCC2)c2c1CCC2 (centres unmarked) [Example 20, 2-(4-fluorobenzylthio)-1-((4-(2-(piperidin-1-yl)ethyl)-5-(4′-(trifluoromethyl)biphenyl-4-yl)-4,5-dihydro-1,2,4-oxadiazol-3-yl)methyl)-6,7-dihydro-1H-cyclopenta[d]pyrimidin-4(5H)-one]
 | 51.2% |  | CCOC(=O)N1CCC(N2C(Cn3c(SCc4cccc(F)c4F)nc(=O)c4c3CCC4)=NOC2c2ccc(-c3ccc(C(F)(F)F)cc3)cc2)CC1 (centres unmarked) [Example 21, ethyl 4-(3-((2-(2,3-difluorobenzylthio)-4-oxo-4,5,6,7-tetrahydro-1H-cyclopenta[d]pyrimidin-1-yl)methyl)-5-(4′-(trifluoromethyl)biphenyl-4-yl)-1,2,4-oxadiazol-4(5H)-yl)piperidine-1-carboxylate]
 | 63% |  | CCOC(=O)N1CCC(N2C(Cn3c(SCc4ccc(F)cc4)nc(=O)c4c3CCC4)=NOC2c2ccc(-c3ccc(C(F)(F)F)cc3)cc2)CC1 (centres unmarked) [Example 22]
16.3% | 78.5% |  | CCN(CC)CCN1C(Cn2c(SCc3ccc(F)cc3)nc(=O)c3c2CCC3)=NOC1c1ccc(-c2ccc(C(F)(F)F)cc2)cc1 (centres unmarked) [Example 24, 1-((4-(2-(diethylamino)eth-yl)-5-(4′-(trifluorometh-yl)biphenyl-4-yl)-4,5-di-hydro-1,2,4-oxadiazol-3-yl)methyl)-2-(4-fluorobenzyl-thio)-6,7-dihydro-1H-cyclopenta[d]pyrimidin-4(5H)-one]
23% | 74.3% |  | O=c1nc(SCc2ccc(F)cc2)n(CC2=NOC(c3ccc(-c4ccc(C(F)(F)F)cc4)cc3)N2CCN2CCOCC2)c2c1CCC2 (centres unmarked) [Example 25, 2-(4-fluorobenzylthio)-1-((4-(2-morpholinoethyl)-5-(4′-(trifluoromethyl)bi-phenyl-4-yl)-4,5-dihydro-1,2,4-oxadiazol-3-yl)meth-yl)-6,7-dihydro-1H-cy-clopenta[d]pyrimidin-4(5H)-one]
90.7% |  | 53.1% | Cc1cnc(Cn2c(SCc3ccc(F)cc3)nc(=O)c3c2CCC3)n1Cc1ccc(-c2ccc(C(F)(F)F)cc2)cc1 [Example 40, 2-(4-fluorobenzylthio)-1-((5-methyl-1-((4′-(trifluoromethyl)biphenyl-4-yl)methyl)-1H-imidazol-2-yl)methyl)-6,7-dihydro-1H-cyclopenta[d]pyrimidin-4 (5H)-one]
 |  | 57% | CCOC(=O)c1cnc(Cn2c(SCc3ccc(F)cc3)nc(=O)c3c2CCC3)n1Cc1ccc(-c2ccc(C(F)(F)F)cc2)cc1 [Example 50, ethyl 2-((2-(4-fluorobenzylthio)-4-oxo-4,5,6,7-tetrahydro-1H-cyclopenta[d]pyrimidin-1-yl)methyl)-1-((4′-(trifluoromethyl)biphenyl-4-yl)methyl)-1H-imidazole-5-carboxylate]
